Data taken from patent US20200140826A1, “Maintenance and Expansion of Pancreatic Progenitor Cells” (AGENCY FOR SCIENCE, TECHNOLOGY AND RESEARCH, priority 2017, published 2020).

Columns and labels:
cPP cells [1] = experiment: Omission of individual components from complete cPP culture medium on 3T3-J2 feeders (phase contrast, qRT-PCR); type: cell-based, human; details: for Effect of removing the component on cPP expansion, colony size and morphology: component individually omitted from complete medium, cPP cells cultured 6 days on 3T3-J2 feeders
Description: Gentle cell dissociation reagent (STEMCELL Technologies, 07174) was used to passage cPP cells as aggregates that were then seeded at a 1:6 split ratio onto a layer of 3T3-J2 feeders (0.5×10^6 to 1×10^6 cells/cm^2) in medium composed of advanced DMEM/F12 (Thermo Fisher Scientific, 21634010), 2 mM L-glutamine (Thermo Fisher Scientific, 25030), 100 U/mL penicillin/streptomycin (Thermo Fisher Scientific, 15140122), 1× N2 supplement (Thermo Fisher Scientific, 17502-048), 1× B27 supplement (Thermo Fisher Scientific, 17504-044), 30 nM dexamethasone (STEMCELL Technologies, 72092), 50 ng/mL EGF (R&D Systems, 236-EG-200), 50 ng/mL FGF10 (Source Bioscience, ABC144), 3 μM RA (Sigma, R2625), 10 μM SB431542 (Calbiochem, 616464), and 1 μM DAPT (Sigma, D5942). If plating single cPP cells, complete medium was supplemented with 10 μM Y27632 for the first 48 hr (Sigma, Y0503). Medium was completely replenished every 2-3 days.
RNA was isolated from samples using an RNeasy mini kit (Qiagen, cat # 74104) and reverse transcribed to generate cDNA using a high-capacity reverse transcription kit and random hexamer primers (Applied Biosystems, 4368814,1 μg RNA per 20 μL reaction). Quantitative RT-PCR was carried out using SYBR Select Mastermix (Applied Biosystems, 4472908). Data were analyzed using the ΔΔCT method, and normalized to expression of the housekeeping gene TBP in each sample.
To establish the roles played by the growth factors and small molecules in our culture media, each was removed individually and the effect on differentiation and proliferation was assessed.

cPP cells [2] = experiment: Microbioreactor array (MBA) screening of cPP maintenance and proliferation; type: cell-based, human; details: relatively low concentration (1 μM) in cPP culture medium
Description: Microbioreactor arrays were used to screen the effects of combinations of exogenous signaling molecules on cPP cells. MBAs provide combinatorial mixing of input factors, combined with continuous flow of culture media over culture chambers. MBAs were autoclaved and filled with sterile PBS, then coated (2-4 h, room temperature) with a single 1 mL injection of hESC-qualified matrigel at the manufacturer's recommended concentration. cPP cells in suspension in complete medium at 5×10^6/mL were then seeded in the MBA, giving a surface density of 50×10^6cells/cm^2. Cells were allowed to attach for a total of 20 h, with a media exchange performed every 6 h. […] Nuclear segmentation and quantification of nuclear intensities of PDX1 and SOX9 then proceeded similarly as previously described.
To quantify the effect of exogenous signaling molecules on the maintenance and expansion of cPP cells, this study used a microbioreactor array (MBA) screening platform to measure differentiation and proliferation. […] The study then used an image-segmentation algorithm to identify individual nuclei and quantify immunofluorescence staining for PDX1 and SOX9, thereby enabling the determination of the percentage of double-positive cells following exposure to different growth factor regimes. […]

| Molecule | Effect of removing the component on cPP expansion, colony size and morphology (cPP cells [1]) | Effect of removing the component on viability (cPP cells [1]; component removed from the culture media over multiple passages) | Effect on proliferation of cPP cells (cPP cells [2]) |
| --- | --- | --- | --- |
| C[C@H](NC(=O)Cc1cc(F)cc(F)c1)C(=O)N[C@H](C(=O)OC(C)(C)C)c1ccccc1 [DAPT] | did not significantly affect colony size or morphology in the short term | noticeable loss of viability | promotes proliferation of cPP cells |
| NC(=O)c1ccc(-c2nc(-c3ccc4c(c3)OCO4)c(-c3ccccn3)[nH]2)cc1 [SB431542] | caused colonies to detach from the feeder layer | – | – |
| EGF: epidermal growth factor, growth factor in the cPP culture medium (50 ng/mL) (NSDSECPLSHDGYCLHDGVCMYIEALDKYACNCVVGYIGERCQYRDLKWWELR; Epidermal growth factor; UniProt P01133 971-1023, looked up) | prevented cPP expansion | – | – |
